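Five concentrations, 48 hours, 96-well plates. TGI: total growth inhibition.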
What was measured:
Experiment in all cases: NCI tumour cell line growth inhibition, 48 h
RPMI-8226 leukemia = tested on: RPMI-8226 leukemia
HCT-15 colon = tested on: HCT-15 colon
T-47D breast = tested on: T-47D breast
SF-268 CNS = tested on: SF-268 CNS
SK-MEL-5 melanoma = tested on: SK-MEL-5 melanoma
HS 578T breast = tested on: HS 578T breast
MOLT-4 leukemia = tested on: MOLT-4 leukemia
PC-3 prostate = tested on: PC-3 prostate
MALME-3M melanoma = tested on: MALME-3M melanoma
CCRF-CEM leukemia = tested on: CCRF-CEM leukemia
MDA-MB-435 = tested on: MDA-MB-435
COLO 205 colon = tested on: COLO 205 colon
SNB-75 CNS = tested on: SNB-75 CNS

Structure (SMILES) | TGI (RPMI-8226 leukemia) [µM] | TGI (HCT-15 colon) [µM] | TGI (T-47D breast) [µM] | TGI (SF-268 CNS) [µM] | TGI (SK-MEL-5 melanoma) [µM] | TGI (HS 578T breast) [µM] | TGI (MOLT-4 leukemia) [µM] | TGI (PC-3 prostate) [µM] | TGI (MALME-3M melanoma) [µM] | TGI (CCRF-CEM leukemia) [µM] | TGI (MDA-MB-435) [µM] | TGI (COLO 205 colon) [µM] | TGI (SNB-75 CNS) [µM]
N#CC1=C(S)N(C2OC(CO)C(O)C(O)C2O)C(c2ccccc2)=CC1c1cccs1 (centres undefined) | > 100 | > 100 | 65.7 | 63.8 | 31 | 67 | > 100 | 30.8 | 38.7 | > 100 | 44.1 | 38.6 | 51.8
CC1(C)CC[C@]2(C(=O)O)CC[C@]3(C)C(=CC[C@@H]4[C@@]5(C)CC[C@H](OC6OC(CO)C(O)C(O)C6O)C(C)(C)[C@@H]5CC[C@]43C)[C@@H]2C1 (some centres undefined) | 6.08 | 10.7 | 3.55 | 3.51 | 3.54 | 4.74 | 4.55 | 2.96 | 3.16 | 6.36 | 3.39 | 3.21 | 5.33
FC(F)(F)C1(c2ccccc2)SCc2nc3ccccc3n21 (centres undefined) | > 100 | > 100 | > 100 | > 100 | > 100 | > 100 | > 100 | > 100 | > 100 | > 100 | > 100 | > 100 | > 100
Cc1cc(=O)n2nc(CSc3n[nH]c(=S)s3)sc2n1 | > 100 | > 100 | > 100 | > 100 | > 100 | > 100 | > 100 | > 100 | > 100 | > 100 | > 100 | > 100 | > 100
Nc1nc(Cl)c(C=O)c(NCC2(CO)CCC2)n1 | > 100 | 25.3 | > 100 | 51.8 | 31.4 | 67.9 | 65.5 | 34.6 | > 100 | 34.1 | > 100 | 78.3 | 67.7
C/C(=N\Nc1nc2ccccc2o1)c1cc2ccccc2cn1 | > 20.7 | > 20.3 | > 100 | 2.82 | 22.5 | 11.2 | > 46.3 | 12 | 5.51 | > 38.5 | > 43.4 | > 32.7 | 3.7
CN(/N=C/c1ccccc1C(=O)O)C1=NCCCCN1 | > 100 | > 100 | > 100 | > 100 | > 100 | > 100 | > 100 | > 100 | > 100 | > 100 | > 100 | > 100 | > 100
C[C@H]1[C@H](C)CC[C@]2(C(=O)OC3OC(CO)C(O)C(O)C3O)CC[C@]3(C)C(=CC[C@@H]4[C@@]5(C)C[C@@H](O)[C@@H]6OC(=O)c7cc(O)c(O)c(O)c7-c7c(cc(O)c(O)c7O)C(=O)OC[C@]6(CO)[C@@H]5CC[C@]43C)[C@H]12 (some centres undefined) | > 100 | > 100 | > 100 | > 100 | > 100 | > 100 | 66.9 | > 100 | > 100 | 69.2 | 32.9 | > 100 | > 100
